In patent US11872262B2, “Means and methods for treating bacterial infections” (VIB VZW, priority 2017, dated 2024):
Residues, ends and D or L forms follow the SMILES beside them.

Test: In vivo toxicity test
Set-up: species or system Swiss mice
Procedure: The procedures used in the assays were approved by the local Animal Ethical Committee and conform to international standards of animal welfare (Approval P067/2015 of the Ethical Committee of KU Leuven). […] Briefly, 5-6 week-old Swiss females were divided into […] (6 animals/group) and administered 30 mg/kg of Colpeptin1 (group A) or vehicle (physiological water pH 7.5) (group b) once a day for 18 days via IP injection. During the treatment period the clinical, physiological and behavioral parameters including body weight, food and water consumption, body condition score, home cage activity and locomotion were constantly monitored and recorded.
Three days after the last administration animals were anesthetized and blood was collected using a standard retro-orbital puncture from each animal. Next, the mice sacrificed and underwent complete necropsy with gross examination and organ weights. The organs (Heart, Liver, Spleen, kidney, bone marrow, Brain, Lung) were sampled and immersion fixed in 4% paraformaldehyde. Formalin-fixed tissues after dehydration were routinely processed and embedded in paraffin blocks for histopathological examination. 5 μm thick sections taken from these blocks (Thermo Scientific Microm HM355S microtome) were then stained with Hematoxylin and Eosin (Leica ST5010 Autostainer XL) and evaluated under a Leica DM 2500 light microscope by a board-certified veterinary pathologist. Hematology examination was performed using an automate high-resolution flow cytometer, Abbott Cell-Dyn 3700.

[1] = mice, 30 mg/kg, 18 consecutive days injection
[2] = mice, 18 consecutive days of injection, Mean ± SD

SMILES: CC(C)C[C@H](NC(=O)CNC(=O)[C@H](CCCNC(=N)N)NC(=O)[C@@H]1CCCN1C(=O)[C@H](CCCNC(=N)N)NC(=O)[C@H](CCCNC(=N)N)NC(=O)[C@@H](NC(=O)[C@H](CC(C)C)NC(=O)[C@H](C)NC(=O)[C@H](CC(C)C)NC(=O)CNC(=O)[C@H](CC(C)C)NC(=O)CNC(=O)[C@@H](N)CCCNC(=N)N)C(C)C)C(=O)NCC(=O)N[C@@H](CC(C)C)C(=O)N[C@@H](C)C(=O)N[C@@H](CC(C)C)C(=O)N[C@H](C(=O)N[C@@H](CCCNC(=N)N)C(=O)N[C@@H](CCCNC(=N)N)C(=O)O)C(C)C [Peptide P2] (H-RGLGLALVRRPRGLGLALVRR-OH)
- adverse effects on repeated dosing (6 mice, daily injections at the maximum tolerated dose for 18 days): without any apparent adverse effects
- acute adverse effects, dose escalation (Swiss mice, intraperitoneal administration of up to 30 mg/kg): no acute adverse effects
- survey of the major organs (after 18 days dosing and 3 days recovery): no major morphological signs of toxicity
- Organs weights: Brain [1]: 0.56 ± 0.02 gr
- Organs weights: Heart [1]: 0.20 ± 0.02 gr
- Organs weights: Kidneys [1]: 0.58 ± 0.01 gr
- Organs weights: Liver [1]: 1.90 ± 0.11 gr
- Organs weights: Spleen [1]: 0.12 ± 0.01 gr
- BASO, Basophil absolute count [2]: 0.24 ± 0.02
- EOS, Eosinophil absolute count [2]: 0.14 ± 0.06
- HCT, Hematocrit [2]: 98.87 ± 3.7
- HGB, Hemoglobin concentration [2]: 17.8 ± 0.45
- LYM, Lymphocyte absolute count [2]: 5.32 ± 0.52
- MCH, Mean Corpuscular Hemoglobin [2]: 48.2 ± 0.34
- MCHC, Mean Corpuscular Hemoglobin Concentration [2]: 53.7 ± 0.42
- MCV, Mean Corpuscular Volume [2]: 273 ± 1.32
- MONO, Monocyte absolute count [2]: 0.15 ± 0.05
- MPV, Mean Platelet Volume [2]: 16.36 ± 0.2
- NEU, Neutrophil absolute count [2]: 0.80 ± 0.06
- PCT, Plateletcrit [2]: 0.88 ± 0.05
- PDW, Platelet Distribution Width [2]: 49.9 ± 0.43
- PLT, Platelet or Thrombocyte count [2]: 1595 ± 50.7
- RBC, Red Blood Cell or Erythrocyte count [2]: 10.9 ± 0.46
- WBC, White Blood Cell or Leukocyte count [2]: 6.89 ± 0.42
- MTD (mouse, in vivo, ip, Swiss mice, intraperitoneal, read-out: safe concentration from escalation experiment): 30 mg/kg
